The values below come from PubChem BioAssay (NCI).

Some test systems named below: BT-549 breast; T-47D breast; HCT-15 colon; MALME-3M melanoma; UO-31 renal; RXF 393 renal; DU-145 prostate; SK-MEL-2 melanoma; EKVX NSCLC; LOX IMVI melanoma.
What all share (assay): growth of human tumour cells (NCI), 48 h

Where “and” joins values, the source holds several entries; their conditions need not be identical. Equal values may be shown once.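 Briefly, cells in 96-well plates were exposed to five compound concentrations for 48 h, and endpoints were estimated by linear interpolation. GI50 marks 50% less growth. The concentration for full growth arrest is given as TGI.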

With `O=C(Nc1ccc(Oc2ccc(NC(=O)Nc3ccccc3Cl)cc2)cc1)Nc1ccccc1Cl`, the GI50 was 5.06 µM in the test with BT-549 breast; 6.98 µM with T-47D breast; 0.677 µM in the test with HCT-15 colon; 15.4 µM in the test with MALME-3M melanoma; 34.8 µM with UO-31 renal; 2.99 µM in the test on RXF 393 renal. The GI50 in the test with DU-145 prostate was 4.53 µM; in the test with SK-MEL-2 melanoma it was 8.17 µM; in the test with EKVX NSCLC, 16.4 µM; with LOX IMVI melanoma it was 10.8 µM. Besides, the TGI with BT-549 breast is 25 µM; in the test with T-47D breast, greater than 90.6 µM; in the test on HCT-15 colon, greater than 100 µM; with MALME-3M melanoma it was greater than 96 µM; in the test on UO-31 renal, greater than 95.8 µM; in the test on RXF 393 renal, 11.4 µM. Besides, the TGI in the test on DU-145 prostate was greater than 100 µM; in the test on SK-MEL-2 melanoma it was greater than 20.4 µM; in the test with EKVX NSCLC, greater than 100 µM; with LOX IMVI melanoma, greater than 100 µM.
Regarding `COc1cc(-c2cc(-c3cccs3)c(C#N)c(N3CCOCC3)n2)cc(OC)c1OC`, the GI50 with BT-549 breast is 8.22 µM; in the test with T-47D breast, 3.32 µM; in the test with HCT-15 colon, 3.09 µM; in the test on MALME-3M melanoma it was 3.66 µM; with UO-31 renal, 5.12 µM; in the test on RXF 393 renal it was 3.47 µM. Further, the GI50 with DU-145 prostate was 13.7 µM; in the test with SK-MEL-2 melanoma, 8.46 µM; in the test with EKVX NSCLC it was 24.2 µM; in the test on LOX IMVI melanoma, 12 µM. Also, the TGI was greater than 100 µM in the test on BT-549 breast; greater than 85.3 µM with T-47D breast; greater than 100 µM in the test on HCT-15 colon; greater than 100 µM in the test on MALME-3M melanoma; greater than 100 µM in the test with UO-31 renal; greater than 62.8 µM with RXF 393 renal. Besides, the TGI with DU-145 prostate, in the test on SK-MEL-2 melanoma, with EKVX NSCLC and in the test with LOX IMVI melanoma was greater than 100 µM throughout.
With `Cc1cc2c(C(=O)NCC#N)cccc2n1-c1nc2c(c(NCc3ccccc3)n1)CCCC2`, the GI50 in the test on BT-549 breast was 0.251 µM; in the test on T-47D breast it was 0.269 µM; with HCT-15 colon it was 0.192 µM; with MALME-3M melanoma, 0.201 µM; with UO-31 renal, 0.305 µM; in the test on RXF 393 renal, 0.225 µM. Also, the GI50 was 0.384 µM in the test on DU-145 prostate, 0.231 µM with SK-MEL-2 melanoma, 0.329 µM in the test on EKVX NSCLC and 0.18 µM in the test on LOX IMVI melanoma. The TGI is 0.7 µM in the test on BT-549 breast; 1.53 µM in the test on T-47D breast; 0.404 µM in the test with HCT-15 colon; 0.618 µM in the test with MALME-3M melanoma; 1.11 µM in the test on UO-31 renal; 0.541 µM with RXF 393 renal. For the same molecule, the TGI in the test on DU-145 prostate was 2.48 µM; in the test on SK-MEL-2 melanoma, 0.644 µM; in the test on EKVX NSCLC, 2.4 µM; in the test on LOX IMVI melanoma it was 0.358 µM.
For `C=C1C[C@@H](O)[C@@H](Br)C(C)(C)[C@]12CCC(C)(Br)C(Cl)C2` (stereo not given in full), the GI50 in the test with BT-549 breast was 18.9 µM; in the test with T-47D breast, 19 µM; with HCT-15 colon it was 23.7 µM; with MALME-3M melanoma it was 16.5 µM; with UO-31 renal, 25.4 µM; with RXF 393 renal, 18.5 µM. For the same molecule, the GI50 with DU-145 prostate was 18.7 µM; in the test with SK-MEL-2 melanoma, 16.5 µM; in the test with EKVX NSCLC it was 2.54 µM; in the test with LOX IMVI melanoma it was 18.1 µM. Further, the TGI was > 50 µM and 38.3 µM with BT-549 breast; > 50 µM and 49.3 µM in the test on T-47D breast; > 50 µM and 52.4 µM with HCT-15 colon; > 50 µM and 33.4 µM in the test on MALME-3M melanoma; > 50 µM and 43.7 µM in the test on UO-31 renal; > 50 µM and 37.2 µM in the test with RXF 393 renal. The TGI was > 50 µM and 36 µM with DU-145 prostate; > 50 µM and 30.4 µM in the test with SK-MEL-2 melanoma; 50 µM and 15.2 µM with EKVX NSCLC; > 50 µM and 35 µM in the test with LOX IMVI melanoma.
`COc1ccc2nc3cc(Cl)ccc3c(NCCNCC(O)CO)c2c1` (stereo not given): the GI50 in the test with BT-549 breast was 6.69 µM; in the test on T-47D breast, 1.4 µM; in the test with HCT-15 colon, 5.36 µM; in the test with MALME-3M melanoma, 1.72 µM; in the test on UO-31 renal, 3.62 µM; in the test with RXF 393 renal it was 1.66 µM. In addition, the GI50 in the test with DU-145 prostate was 1.88 µM; with SK-MEL-2 melanoma it was 2.01 µM; with EKVX NSCLC, 3.33 µM; in the test with LOX IMVI melanoma, 0.5 µM. The TGI in the test on BT-549 breast is 20.8 µM; in the test on T-47D breast, 6.86 µM; in the test with HCT-15 colon, 20 µM; in the test with MALME-3M melanoma, 5.93 µM; in the test on UO-31 renal it was 17.4 µM; in the test on RXF 393 renal, 4.75 µM. Moreover, the TGI with DU-145 prostate is 11.4 µM; with SK-MEL-2 melanoma, 6.97 µM; in the test on EKVX NSCLC, 13.1 µM; in the test on LOX IMVI melanoma it was 2.35 µM.
Take `Nc1nc(=S)c2ncn(C3OC(CO)C(O)C3O)c2[nH]1` (stereo not given): the GI50 is 2.12 µM in the test on BT-549 breast; 0.511 µM in the test with T-47D breast; 0.92 µM in the test on HCT-15 colon; 1.2 µM in the test with MALME-3M melanoma; 0.77 µM in the test on UO-31 renal; 34.7 µM in the test on RXF 393 renal. The GI50 with DU-145 prostate was 0.542 µM; with SK-MEL-2 melanoma, 10.5 µM; in the test with EKVX NSCLC it was 2.02 µM; with LOX IMVI melanoma, 0.301 µM. In addition, the TGI with BT-549 breast is greater than 100 µM; in the test on T-47D breast, 83.3 µM; with HCT-15 colon, greater than 100 µM; in the test on MALME-3M melanoma it was 31.1 µM; with UO-31 renal, greater than 100 µM; with RXF 393 renal, greater than 100 µM. For the same molecule, the TGI is greater than 100 µM with DU-145 prostate, greater than 100 µM in the test with SK-MEL-2 melanoma, greater than 100 µM with EKVX NSCLC and 11.8 µM with LOX IMVI melanoma.
